Values quoted from earlier work, collected in article PMC12385607 (ACS medicinal chemistry letters, 2025).

Tests used:
[1] = 30 min post-oral administration
[2] = orally available 2-PMPA prodrugs

SMILES	Plasma concentration of 2-PMPA after oral administration of 2-PMPA itself [1]	Clearance from plasma after intravenous administration (in words)	Brain distribution of 2-PMPA (in words) [2]
O=C(O)CCC(CP(=O)(O)O)C(=O)O (stereo not drawn) [2-PMPA, 2-(phosphonomethyl)pentanedioic acid]	~ 250 nM	quickly cleared from the plasma	–
Cc1oc(=O)oc1COC(=O)CCC(CP(=O)(OCc1oc(=O)oc1C)OCc1oc(=O)oc1C)C(=O)OCc1oc(=O)oc1C (stereo not drawn) [tetra-ODOL-2-PMPA]	–	–	limited brain distribution
